Measurements reported in patent publication US20240132431A1, “METHOD FOR ALKYLATING ACIDIC FUNCTIONAL GROUP” (Chugai Seiyaku Kabushiki Kaisha, priority 2021, published 2024).
Blank lines part the entries; values can stand above or below the compound they belong to.

Target: T1, Bcl-2 protein (Recombinant Human Bcl-2 Protein) (Homo sapiens, UniProt P10415)
T1 construct: purchased Novus NBP2-34889
Test: Binding evaluation of mixture library compounds to Bcl-2 using AS-MS (affinity selection mass spectrometry)
Conditions: for ASMS ratio (%) n = 2 / ASMS ratio (%) n = 1: ASMS Ratio(%)=(A−C)/B×100; for ASMS ratio (%) n = 2: replicate n = 2; for ASMS ratio (%) n = 1: replicate n = 1
How it was run: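 ASMS Ratio (%) was calculated as (A−C)/B×100, where A is the protein sample after SEC, B the protein-free sample without SEC and C the protein-free sample after SEC. Each compound was at […] in a 1200-member pool with 20 μM Bcl-2, incubated 1 h at 23° C.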

[1] = AS-MS, mixture of 1200 compounds, Bcl-2
[2] = AS-MS on the mixture of 1200 library compounds

T1 sequence (P10415 whole entry): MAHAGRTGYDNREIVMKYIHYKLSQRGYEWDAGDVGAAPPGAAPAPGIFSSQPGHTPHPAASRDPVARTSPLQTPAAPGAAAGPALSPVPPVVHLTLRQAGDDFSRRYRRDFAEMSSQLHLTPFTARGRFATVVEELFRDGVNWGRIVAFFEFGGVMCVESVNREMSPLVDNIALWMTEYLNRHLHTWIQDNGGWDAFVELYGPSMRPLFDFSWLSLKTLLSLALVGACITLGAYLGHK

Compound: CCOc1cncc(-c2cc(CN3CCN(c4ccc(C(=O)NCC56CC7CC(CC(C7)C5)C6)cc4)CC3)cc(OC(C)C)c2)c1 [B1A058-01, N-(1-Adamantylmethyl)-4-[4-[[3-(5-ethoxypyridin-3-yl)-5-propan-2-yloxyphenyl]methyl]piperazin-1-yl]benzamide]
ASMS ratio (%) n = 2 [1]: 0.0%

Compound: CCOc1cccc(C#Cc2cncc(C(=O)N3CCN(c4ccc(C(=O)NS(=O)(=O)CC56CC7CC(CC(C7)C5)C6)cc4)CC3)c2)c1 [B2A031-01, N-(1-Adamantylmethylsulfonyl)-4-[4-[5-[2-(3-ethoxyphenyl)ethynyl]pyridine-3-carbonyl]piperazin-1-yl]benzamide]
ASMS ratio (%) n = 1 (AS-MS, mixture library, Bcl-2): 0.0% | ASMS ratio (%) n = 2 (AS-MS, mixture library, Bcl-2): 0.3%

Compound: CCCNC(=O)c1ccc(N2CCN(Cc3ccc(-c4cccc(OCC)c4)c(C)c3)CC2)cc1 [B1M058-01]
ASMS ratio (%) n = 1 [1]: −1.4% | ASMS ratio (%) n = 2 [1]: −1.5%

Compound: 4-[4-[3-(5-Ethoxypyridin-3-yl)-5-(trifluoromethyl)benzoyl]piperazin-1-yl]-N-propylbenzamide [B1M008-01]
ASMS ratio (%) n = 2 [1]: 0.0%

Compound: CCOc1cncc(-c2cnn(-c3cc(C(=O)N4CCN(c5ccc(C(=O)NS(C)(=O)=O)nn5)CC4)cc(C(F)(F)F)c3)c2)c1 [B2I022-01, 6-[4-[3-[4-(5-Ethoxypyridin-3-yl)pyrazol-1-yl]-5-(trifluoromethyl)benzoyl]piperazin-1-yl]-N-methylsulfonylpyridazine-3-carboxamide]
ASMS ratio (%) n = 1 (AS-MS, mixture library, Bcl-2): 0.0% | ASMS ratio (%) n = 2 (AS-MS, mixture library, Bcl-2): 0.0%

Compound: CCOc1cncc(-c2cc(OC)c(CN3CCN(c4ccc(C(=O)NCC(F)(F)F)nn4)CC3)c(OC)c2)c1 [B1K086-01, 6-[4-[[4-(5-Ethoxypyridin-3-yl)-2,6-dimethoxyphenyl]methyl]piperazin-1-yl]-N-(2,2,2-trifluoroethyl)pyridazine-3-carboxamide]
ASMS ratio (%) n = 2 [1]: 0.0%

Compound: 6-[4-[[3-(5-Ethoxypyridin-3-yl)-5-(trifluoromethoxy)phenyl]methyl]piperazin-1-yl]-N-propylpyridazine-3-carboxamide [B1M035-01]
ASMS ratio (%) n = 1 [1]: 2.9% | ASMS ratio (%) n = 2 [1]: −1.7%

Compound: CCOc1cccc(-c2cc(C(=O)N3CCN(c4ccc(C(=O)NCC(F)(F)F)cc4)CC3)cc(C(C)(C)C)c2)c1 [B1K037-01, 4-[4-[3-tert-Butyl-5-(3-ethoxyphenyl)benzoyl]piperazin-1-yl]-N-(2,2,2-trifluoroethyl)benzamide]
ASMS ratio (%) n = 1 [1]: 0.8% | ASMS ratio (%) n = 2 [1]: 1.9%

Compound: CCOc1cncc(-c2ccc(CN3CCN(c4ccc(C(=O)NS(=O)(=O)CC56CC7CC(CC(C7)C5)C6)cc4)CC3)c3ccccc23)c1 [B2A066-01, N-(1-Adamantylmethylsulfonyl)-4-[4-[[4-(5-ethoxypyridin-3-yl)naphthalen-1-yl]methyl]piperazin-1-yl]benzamide]
ASMS ratio (%) n = 1 (AS-MS, mixture library, Bcl-2): 3.2% | ASMS ratio (%) n = 2 (AS-MS, mixture library, Bcl-2): 0.0%

Compound: CCOc1cncc(-c2csc(CN3CCN(c4ccc(C(=O)NS(C)(=O)=O)nn4)CC3)c2)c1 [B2I094-01, 6-[4-[[4-(5-Ethoxypyridin-3-yl)thiophen-2-yl]methyl]piperazin-1-yl]-N-methylsulfonylpyridazine-3-carboxamide]
ASMS ratio (%) (n = 1): 0.0% | ASMS ratio (%) (n = 2): 0.0%

Compound: CCOc1cccc(-c2ccc(C(=O)N3CCN(c4ccc(C(=O)Nc5ccc(OC)cc5)nn4)CC3)c3ccccc23)c1 [B1O013-01, 6-[4-[4-(3-Ethoxyphenyl)naphthalene-1-carbonyl]piperazin-1-yl]-N-(4-methoxyphenyl)pyridazine-3-carboxamide]
ASMS ratio (%) n = 1 [2]: 2.2% | ASMS ratio (%) n = 2 [2]: −4.0%

Compound: CCOc1cncc(-c2cc(CN3CCN(c4ccc(C(=O)Nc5ccc(OC)cc5)cc4)CC3)cc(OC(F)(F)F)c2)c1 [B1O064-01, 4-[4-[[3-(5-Ethoxypyridin-3-yl)-5-(trifluoromethoxy)phenyl]methyl]piperazin-1-yl]-N-(4-methoxyphenyl)benzamide]
ASMS ratio (%) n = 1 [2]: 0.7% | ASMS ratio (%) n = 2 [2]: −4.0%

Compound: CCOc1cccc(-c2ccc(CN3CCN(c4ccc(C(=O)NCC(F)(F)F)nn4)CC3)cc2F)c1 [B1K077-01, 6-[4-[[4-(3-Ethoxyphenyl)-3-fluorophenyl]methyl]piperazin-1-yl]-N-(2,2,2-trifluoroethyl)pyridazine-3-carboxamide]
ASMS ratio (%) n = 1 [1]: 2.4% | ASMS ratio (%) n = 2 [1]: −0.2%

Compound: CCOc1cccc(-c2cc(CN3CCN(c4ccc(C(=O)NCC(F)(F)F)nn4)CC3)cc(C(F)(F)F)c2)c1 [B1K087-01]
ASMS ratio (%) n = 1 [1]: 1.8% | ASMS ratio (%) n = 2 [1]: −0.1%

Compound: CCOc1cncc(-c2cc(CN3CCN(c4ccc(C(=O)NCC56CC7CC(CC(C7)C5)C6)nn4)CC3)cc(OCC)c2)c1 [B1A082-01, N-(1-Adamantylmethyl)-6-[4-[[3-ethoxy-5-(5-ethoxypyridin-3-yl)phenyl]methyl]piperazin-1-yl]pyridazine-3-carboxamide]
ASMS ratio (%) n = 1 [1]: 3.0% | ASMS ratio (%) n = 2 [1]: 0.2%

Compound: CCOc1cccc(-c2ccc(CN3CCN(c4ccc(C(=O)NS(=O)(=O)CC56CC7CC(CC(C7)C5)C6)nn4)CC3)cc2F)c1 [B2A077-01, N-(1-Adamantylmethylsulfonyl)-6-[4-[[4-(3-ethoxyphenyl)-3-fluorophenyl]methyl]piperazin-1-yl]pyridazine-3-carboxamide]
ASMS ratio (%) n = 1 (AS-MS, mixture library, Bcl-2): 14.3% | ASMS ratio (%) n = 2 (AS-MS, mixture library, Bcl-2): 21.9%

Compound: 6-[4-[2-[2-(3-Ethoxyphenyl)ethynyl]benzoyl]piperazin-1-yl]-N-propylpyridazine-3-carboxamide [B1M095-01]
ASMS ratio (%) n = 1 [2]: 0.0% | ASMS ratio (%) n = 2 [2]: 0.0%

Compound: 4-[4-[3-(3-Ethoxyphenyl)-5-(trifluoromethyl)benzoyl]piperazin-1-yl]-N-propylbenzamide [B1M092-01]
ASMS ratio (%) n = 2 [2]: 0.0%

Compound: CCOc1cncc(-c2cnn(-c3cc(C(=O)N4CCN(c5ccc(C(=O)Nc6ccc(OC)cc6)cc5)CC4)cc(C(F)(F)F)c3)c2)c1 [B1O044-01, 4-[4-[3-[4-(5-Ethoxypyridin-3-yl)pyrazol-1-yl]-5-(trifluoromethyl)benzoyl]piperazin-1-yl]-N-(4-methoxyphenyl)benzamide]
ASMS ratio (%) n = 1 [2]: 5.8% | ASMS ratio (%) n = 2 [2]: 0.4%

Continued, values first:

ASMS ratio (%) (n = 1): 0.0% | ASMS ratio (%) (n = 2): 4.8%
Compound: CCOc1cccc(C#Cc2cncc(C(=O)N3CCN(c4ccc(C(=O)NS(=O)(=O)c5ccc(NCCSc6ccccc6)c(C(F)(F)F)c5)cc4)CC3)c2)c1 [B2R031-01, 4-[4-[5-[2-(3-Ethoxyphenyl)ethynyl]pyridine-3-carbonyl]piperazin-1-yl]-N-[4-(2-phenylsulfanylethylamino)-3-(trifluoromethyl)phenyl]sulfonylbenzamide]

ASMS ratio (%) n = 1 [2]: 3.2% | ASMS ratio (%) n = 2 [2]: 2.5%
Compound: CCOc1cccc(-c2ccccc2CN2CCN(c3ccc(C(=O)N(C)CC45CC6CC(CC(C6)C4)C5)cc3)CC2)c1 [B3A045-01, N-(1-Adamantylmethyl)-4-[4-[[2-(3-ethoxyphenyl)phenyl]methyl]piperazin-1-yl]-N-methylbenzamide]

ASMS ratio (%) n = 1 [2]: 0.6% | ASMS ratio (%) n = 2 [2]: 0.8%
Compound: CCOc1cncc(-c2ccc(C(=O)N3CCN(c4ccc(C(=O)N(C)CC56CC7CC(CC(C7)C5)C6)nn4)CC3)c3ccccc23)c1 [B3A014-01, N-(1-Adamantylmethyl)-6-[4-[4-(5-ethoxypyridin-3-yl)naphthalene-1-carbonyl]piperazin-1-yl]-N-methylpyridazine-3-carboxamide]

ASMS ratio (%) (n = 1): −3.0% | ASMS ratio (%) (n = 2): −1.9%
Compound: CCOc1cncc(-c2cc(CN3CCN(c4ccc(C(=O)NS(=O)(=O)C(C)(C)C)nn4)CC3)cc(OC(C)C)c2)c1 [B2L084-01, N-tert-Butylsulfonyl-6-[4-[[3-(5-ethoxypyridin-3-yl)-5-propan-2-yloxyphenyl]methyl]piperazin-1-yl]pyridazine-3-carboxamide]

ASMS ratio (%) n = 1 [2]: −0.2% | ASMS ratio (%) n = 2 [2]: −1.2%
Compound: CCOc1cncc(C#Cc2cc(C(=O)N3CCN(c4ccc(C(=O)N(C)CC56CC7CC(CC(C7)C5)C6)cc4)CC3)cc(C(F)(F)F)c2)c1 [B3A042-01, N-(1-Adamantylmethyl)-4-[4-[3-[2-(5-ethoxypyridin-3-yl)ethynyl]-5-(trifluoromethyl)benzoyl]piperazin-1-yl]-N-methylbenzamide]

ASMS ratio (%) (n = 2): 0.0%
Compound: CCOc1cccc(-c2cnn(-c3cc(C(=O)N4CCN(c5ccc(C(=O)NS(=O)(=O)CCC(F)(F)F)nn5)CC4)cc(C(F)(F)F)c3)c2)c1 [B2N021-01, 6-[4-[3-[4-(3-Ethoxyphenyl)pyrazol-1-yl]-5-(trifluoromethyl)benzoyl]piperazin-1-yl]-N-(3,3,3-trifluoropropylsulfonyl)pyridazine-3-carboxamide]

ASMS ratio (%) n = 1 (AS-MS, mixture library, Bcl-2): 9.3% | ASMS ratio (%) n = 2 (AS-MS, mixture library, Bcl-2): 14.5%
Compound: CCOc1cncc(-c2ccc(C(=O)N3CCN(c4ccc(C(=O)NS(=O)(=O)c5ccc(NCCSc6ccccc6)c([N+](=O)[O-])c5)nn4)CC3)c3ccccc23)c1 [B2Q014-01, 6-[4-[4-(5-Ethoxypyridin-3-yl)naphthalene-1-carbonyl]piperazin-1-yl]-N-[3-nitro-4-(2-phenylsulfanylethylamino)phenyl]sulfonylpyridazine-3-carboxamide]

ASMS ratio (%) n = 1 (AS-MS, mixture library, Bcl-2): 0.0% | ASMS ratio (%) n = 2 (AS-MS, mixture library, Bcl-2): 0.0%
Compound: CCOc1cccc(-c2ccc(CN3CCN(c4ccc(C(=O)N(CC)CC)nn4)CC3)c(CC)c2)c1 [B4J075-01, 6-[4-[[4-(3-Ethoxyphenyl)-2-ethylphenyl]methyl]piperazin-1-yl]-N,N-diethylpyridazine-3-carboxamide]

ASMS ratio (%) n = 1 (AS-MS, mixture library, Bcl-2): 30.6% | ASMS ratio (%) n = 2 (AS-MS, mixture library, Bcl-2): −1.6%
Compound: CCOc1cccc(-c2ccc(CN3CCN(c4ccc(C(=O)NS(=O)(=O)c5ccc(NCCSc6ccccc6)c([N+](=O)[O-])c5)cc4)CC3)c3ccccc23)c1 [B2Q065-01]
